PubChem BioAssay AID624258 (Broad Institute, 2012)
Active and inactive are the calls of the source. No rule for the calls is given here.

What was measured:
[1] = test system: S. cerevisiae SKN7-toxicity growth rescue, plate reader; assay: SKN7 mediated toxicity in Saccharomyces cerevisiae, growth rescue counterscreen, dose confirmation (AID 624258);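 also: growth read after three days of incubation at 30 °C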;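 as to growth rescue activity: 0% = median of neutral control wells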
[2] = as above; settings: S. cerevisiae SKN7-toxicity growth rescue, plate reader; at 19.5 µM (top of the series)

SMILES	AC40 [1]	growth rescue activity [2]
CCCCCCCCCCOC(=O)Cn1c(COc2ccc(OC)cc2)[n+](C)c2ccccc21	3.33 µM	–
Cc1cc(C)c(C(N)=O)c(Nc2cccc3ccccc23)n1	> 19.5 µM (inactive)	–
COc1cccc(/C=N/Nc2ncc(C(F)(F)F)cc2Cl)c1O	1.11 µM	–
O=C(NCCN1CCN(c2cccc(Cl)c2)CC1)c1ccc(CSc2nc3ccncc3[nH]2)cc1	8.35 µM	–
CC(=O)c1c(C)oc2c1C(=O)c1ccccc1C2=O	1.92 µM	–
O=[N+]([O-])c1cc(C(F)(F)F)ccc1NCCc1c[nH]c2ccc(O)cc12	1.11 µM	–
O=[N+]([O-])c1ccc(N=Nc2ncc[nH]2)cc1	6.08 µM	–
O=c1[nH][nH]cc1C=Nc1ccccc1O	2.18 µM	–
COc1ccc(C(c2c(O)ccc3ccccc23)N2CCOCC2)c(OC)c1 (configuration not stated)	2.35 µM	–
CC(C)(C)c1cc(-c2nc(N)nc(N)n2)c(O)c(C(C)(C)C)c1	1.92 µM	–
Oc1ccccc1-c1nnc(SCCN2CCOCC2)n1Cc1ccccc1	9.94 µM	–
O=c1c(-c2cccc3ccccc23)[n+]([O-])c2ccccc2n1O	12.6 µM	–
COc1ccc(-c2csc(NC(=O)c3ccccc3F)c2C(=O)O)cc1	0.644 µM	–
Clc1ccc(OCc2nc(-c3ccncc3)no2)c(Br)c1	0.95 µM	–
CC(=O)c1ccc(Sc2ccccc2)c([N+](=O)[O-])c1	> 19.5 µM (inactive)	–
CCS(=O)(=O)c1ccc(N=Nc2ccc(O)c3ncccc23)c(OC)c1	3.56 µM	–
CCOC(=O)/C(=C/c1ccc(OC(=O)c2ccccc2)cc1)C(C)=O	1.83 µM	–
CCc1ccc([C@@H]2CC=C(C(=O)O)[C@H](c3ccc(Cl)cc3)N2S(=O)(=O)c2ccc(C)cc2)cc1	4.51 µM	–
CCOC(=O)c1c(C)oc2c1C(=O)c1ccccc1C2=O	2.28 µM	–
NNC(=O)c1ccc2nc(-c3ccc(Br)cc3)cn2c1	13.1 µM	–
O=C(Oc1cccc(NC(=O)c2ccccc2Cl)c1)c1ccc([N+](=O)[O-])cc1	14.1 µM	–

SMILES	AC40 [1]	growth rescue activity [2]
O=C1CC(O)(C(F)(F)F)Oc2c1ccc1ccccc21 (configuration not stated)	0.814 µM	–
Cc1cc(F)ccc1S(=O)(=O)N(C(=O)c1ccncc1)c1ccc(OC(=O)c2ccncc2)cc1	2.42 µM	–
C[C@]12CCC3C(CC[C@H]4C[C@@H](O)CC[C@]34C)C1CC[C@@H]2OC(=O)[C@H](N)CCCCN (some centres not stated)	11 µM	–
Cc1cc2oc(=O)cc(-c3ccccc3)c2c(C)c1-c1ccc(CO)cc1	4.67 µM	–
O=C1Nc2c(Cl)cc(Cl)cc2C1=O	> 19.5 µM (inactive)	–
CC(C)(C)c1ccc(Oc2ccc(N)cc2)cc1	1.95 µM	–
Cc1cc([N+](=O)[O-])cc(/C=N/n2c(C)nc3ccccc3c2=O)c1O	4.24 µM	–
O=[N+]([O-])c1cc(Cl)ccc1Sc1ccccn1	17.3 µM	–
O=C(COc1ccc(Cl)cc1)NCCSCc1cccc(Cl)c1	3.16 µM	–
O=c1cnn([C@@H]2O[C@H](CO)[C@@H](O)[C@H]2O)c(=O)[nH]1	0.882 µM	–
CN(C)c1ccc(-n2cccc2/C=C/[N+](=O)[O-])cc1	1.16 µM	–
COC1=C(OC)C(=O)C(Sc2ccc3ccccc3c2)=CC1=O	6.52 µM	–
O=S(=O)(CCSc1nc2ccccc2o1)c1nc2ccccc2s1	3.62 µM	–
CC1CCc2sc(-c3n[nH]c(=S)o3)cc2C1 (configuration not stated)	0.663 µM	–
COc1cccc(CNC(=O)COc2ccc(C(=O)c3ccccc3)cc2)c1	18 µM	–
Cc1cc(C)c(OCC(=O)Nc2nc(-c3ccccn3)cs2)c(C)c1	0.562 µM	–
O=C(O)c1cccc(NN=C2c3ccccc3-c3ccccc32)c1	3.11 µM	–
Cc1ccc(CNC(=O)CSc2ccc(-c3ccccn3)nn2)cc1	2.75 µM	–
Cc1nnc(N/N=C/c2cccc(OCc3ccc(Cl)c(Cl)c3)c2)n1N	3.28 µM	–
O=C(COC(=O)c1ccc([N+](=O)[O-])o1)NCc1ccc(F)cc1	6.69 µM	–
Cc1csc(NC(=S)Nc2cccc(Cl)c2)n1	11.6 µM	–

SMILES	AC40 [1]	growth rescue activity [2]
O=Cc1cc(N=Nc2ccccc2Cl)ccc1O	0.446 µM	–
Cc1ccc(C)c(S(=O)(=O)N2CCN(Cc3ccc(O)c4ncccc34)CC2)c1	5.93 µM	–
S=C1SCN(Cc2cccnc2)CN1Cc1cccnc1	1.01 µM	–
CC(C)(C)C(=O)C(Cl)C(=O)Nc1ccccc1 (configuration not stated)	2.17 µM	–
CC(C)(C)c1ccc(-n2nc(C#N)c(Cl)cc2=O)cc1	0.292 µM	–
Cc1cc(C(=O)N/N=C/c2ccc(O)c(O)c2O)c(C)n1-c1ccccc1	1.36 µM	–
Cc1ccccc1CSCCNC(=O)COc1ccc(Cl)cc1	7.18 µM	–
Cc1ccc(S(=O)(=O)N2[C@@H](c3ccc(Cl)cc3)C(C(=O)O)=CC[C@H]2c2ccc(Cl)c(Cl)c2)cc1	3.31 µM	–
COc1cccc(/C=N/Nc2ncnc(Cl)c2N)c1O	3.72 µM	–
Cc1ccc(-c2nn(C(C)(C)C)c3ncnc(N)c23)cc1	9.29 µM	–
COc1ccc([C@H]2[C@H]3C=CC[C@@H](C)[C@@H]3C(=O)N2Cc2ccccc2)cc1Cl	4.57 µM	–
COc1ccc(CSCC(=O)Nc2ccc(S(=O)(=O)N3CCCCCC3)cc2)cc1	6.93 µM	–
CC1=CC(=O)C=C(C)C1=NOS(=O)(=O)c1ccccc1	0.454 µM	–
CCOC(=O)c1ccc(NC(=O)CC2C(=O)OCCN2CC)cc1 (configuration not stated)	4.89 µM	–
Cc1nc2ccc(NC(=O)COc3cccc(F)c3)cc2s1	1.43 µM	–
Cc1ccc(Sc2ccc([N+](=O)[O-])cc2[N+](=O)[O-])nc1	10.1 µM	–
Cc1ccc(NC(=O)CN(C)C(=O)c2cccnc2Nc2cccc(C(F)(F)F)c2)cc1	5.69 µM	–
O=C(c1ccco1)N1CCN(C(=O)c2ccccc2OCc2ccc(Cl)cc2)CC1	19.1 µM	–
COc1cc(OC)c(-c2c3cc(O)c(=O)cc-3oc3cc(O)c(O)cc23)cc1OC	1.57 µM	–
CCN(CC)c1ccc(/C=N/NC(=O)c2cccc(S(=O)(=O)N3CCOCC3)c2)c(O)c1	1.39 µM	–
CC(C)(C)n1nc(-c2ccc(F)cc2)c2c(N)ncnc21	15.4 µM	–

SMILES	AC40 [1]	growth rescue activity [2]
C/C(CC(=O)Nc1ccccn1)=N\NC(=O)c1ccccc1O	5.11 µM	–
O=c1nc(N/N=C/c2ccccn2)cn[nH]1	4.69 µM	–
CC1CC(C)CN(C(=O)c2cccc(S(=O)(=O)Nc3cc(C(F)(F)F)ccc3Cl)c2)C1 (configuration not stated)	16.8 µM	–
Cc1nc(Sc2ccc(Cl)cc2)c(C#N)c(C)c1[N+](=O)[O-]	0.937 µM	–
Cc1ccc(S(=O)(=O)N/N=C\c2ccc([N+](=O)[O-])o2)cc1C	10.5 µM	–
O=C(O)c1ccccc1NS(=O)(=O)c1cccc(-n2sc3ccccc3c2=O)c1	4.77 µM	–
COc1ccc(OC)c2c1C(=O)C(Cl)=C(Cl)C2=O	0.66 µM	–
Cc1ccc(COc2ccc(Br)cc2/C=N/O)cc1	1.27 µM	–
CC(C)c1cc(-c2cc(C(=O)NCc3ccccc3)on2)nc(NCC2CC2)n1	7.9 µM	–
CC(/C=N/n1c(COc2ccccc2)n[nH]c1=S)=C\c1ccccc1	> 19.5 µM (inactive)	–
Cc1cc(/C=N/n2cnnc2)c(C)n1-c1ccc(OCc2ccc(F)cc2)cc1	0.516 µM	–
CO/N=C/c1ccc(Oc2ccc([N+](=O)[O-])cc2[N+](=O)[O-])c(OC)c1	18.5 µM	–
Cc1ccc(NC2=C(NC(=O)c3ccccc3)C(=O)c3ccccc3C2=O)cc1Cl	4.15 µM	–
CCN=c1scc(C)n1/N=C/c1ccc(O)c(O)c1O	7.51 µM	–
C(=N\Nc1nncc2ccccc12)/c1ccccn1	3.27 µM	–
CNc1ccc(C=C2C=Cc3ccccc32)cc1	0.998 µM	–
Cc1c(C2(O)CCCCC2)[nH]c2ccc(C(F)(F)F)cc12	–	-43.8% (inactive)
O=C(Oc1ccccc1C(=S)N1CCOCC1)c1ccc([N+](=O)[O-])cc1[N+](=O)[O-]	–	-8.27% (inactive)
Nc1cc([N+](=O)[O-])ccc1O	–	-8.46% (inactive)
